Data on two molecules can be found in publication PMC12090182, “Repurposing of the RIPK1-Selective Benzo[1,4]oxazepin-4-one Scaffold for the Development of a Type III LIMK1/2 Inhibitor” (ACS Chemical Biology, 2025).

Common to all, as to type: binding
The target in one test is FLT3(D835V) (Homo sapiens, UniProt P36888, D835V). Put plainly: biochemical. To be noted: 1000 nM, read-out: Percent Control.
In a further test the target is EGFR(L858R,T790M) (Homo sapiens, UniProt P00533, L858R/T790M). Briefly: biochemical. To be noted: compound concentration 100 nM; Entrez EGFR; read-out: Percent Control.
Test [1] deals with T1, EGFR(T790M) (Homo sapiens, UniProt P00533, T790M). Briefly: biochemical. To be noted: 1000 nM, read-out: Percent Control.
For test [2], the target named is T1, EGFR(T790M). Briefly: biochemical. To be noted: compound concentration 100 nM; Entrez EGFR; read-out: Percent Control.
The next test concerns the target PIK3CA(Q546K) (Homo sapiens, UniProt P42336, Q546K). Put plainly: biochemical. As to conditions: read-out: Percent Control.
Another test deals with PIK3CA(M1043I) (Homo sapiens, UniProt P42336, M1043I). Put plainly: biochemical. To be noted: read-out: Percent Control.
Test [3] addresses ABL1(F317I)-phosphorylated (Homo sapiens, UniProt P00519, F317I). Put plainly: biochemical. As to conditions: read-out: Percent Control.
For another test, the target named is BTK2 (Homo sapiens, UniProt Q06187). Put plainly: scanMAX KINOMEscan (Eurofins).
Test [4] concerns the target T2, FLT3(D835H) (Homo sapiens, UniProt P36888, D835H). Put plainly: biochemical. To be noted: 1000 nM, read-out: Percent Control.
For the next test, the target named is RET(V804L) (Homo sapiens, UniProt P07949, V804L). Briefly: biochemical. As to conditions: compound concentration 100 nM; Entrez RET; read-out: Percent Control.
The target of another test is MET(Y1235D) (Homo sapiens, UniProt P08581, Y1235D). Put plainly: biochemical. As to conditions: 1000 nM, read-out: Percent Control.
A further test deals with ARK5 (Homo sapiens, UniProt O60285). Briefly: scanMAX KINOMEscan (Eurofins). To be noted: read-out: Percent Control. An excerpt: (§1) Supplement cb5c00097_si_002.xlsx, sheet "Table S6 (Eurofins Selectivity)" | column: Percent Control
In another test the target is RIOK2 (Homo sapiens, UniProt Q9BVS4). Put plainly: scanMAX KINOMEscan (Eurofins). To be noted: compound concentration 100 nM; Entrez RIOK2; read-out: Percent Control.
Source text: as §1

For the next test, the target named is DMPK (Homo sapiens, UniProt Q09013). Briefly: scanMAX KINOMEscan (Eurofins). As to conditions: read-out: Percent Control.
Source text: as §1

A further test deals with TBK1 (Homo sapiens, UniProt Q9UHD2). Briefly: scanMAX KINOMEscan (Eurofins). As to conditions: 1000 nM, read-out: Percent Control.
Source text: as §1

The next test has as its target CHEK2 (Homo sapiens, UniProt O96017). Put plainly: scanMAX KINOMEscan (Eurofins). As to conditions: read-out: Percent Control.
Source text: as §1

Another test concerns the target MYLK4 (Homo sapiens, UniProt Q86YV6). Briefly: scanMAX KINOMEscan (Eurofins). To be noted: compound concentration 100 nM; Entrez MYLK4; read-out: Percent Control.
Source text: as §1

The next test has as its target JNK3 (Homo sapiens, UniProt P53779). Put plainly: scanMAX KINOMEscan (Eurofins). To be noted: 1000 nM, read-out: Percent Control.
Source text: as §1

The target of the next test is ROS1 (Homo sapiens, UniProt P08922). Put plainly: scanMAX KINOMEscan (Eurofins). As to conditions: 1000 nM, read-out: Percent Control.
Source text: as §1

The target in test [5] is RSK1(Kin.Dom.2-C-terminal) (Homo sapiens, UniProt Q15418). Put plainly: scanMAX KINOMEscan (Eurofins). As to conditions: compound concentration 100 nM; Entrez RPS6KA1; read-out: Percent Control.
Source text: as §1

For a further test, the target named is SNRK (Homo sapiens, UniProt Q9NRH2). Put plainly: scanMAX KINOMEscan (Eurofins). As to conditions: compound concentration 100 nM; Entrez SNRK; read-out: Percent Control.
Source text: as §1

In another test the target is EPHB1 (Homo sapiens, UniProt P54762). Put plainly: scanMAX KINOMEscan (Eurofins). To be noted: 1000 nM, read-out: Percent Control.
Source text: as §1

The target in a further test is MAPKAPK5 (Homo sapiens, UniProt Q8IW41). Briefly: scanMAX KINOMEscan (Eurofins). To be noted: compound concentration 100 nM; Entrez MAPKAPK5; read-out: Percent Control.
Source text: as §1

Another test has as its system FLT3(ITD,F691L). To be noted: compound concentration 100 nM; Entrez FLT3.
A further test has as its target WNK2 (Homo sapiens, UniProt Q9Y3S1). Put plainly: scanMAX KINOMEscan (Eurofins).
Test [6] has as its target ABL1(T315I)-phosphorylated (Homo sapiens, UniProt P00519, T315I). Briefly: biochemical. To be noted: compound concentration 100 nM; Entrez ABL1; read-out: Percent Control.
The target in test [7] is ABL1(E255K)-phosphorylated (Homo sapiens, UniProt P00519, E255K). Briefly: biochemical. To be noted: read-out: Percent Control.
A further test has as its target BRPF1A (Homo sapiens, UniProt P55201). Briefly: DSF selectivity screening. As to conditions: 10 μM compound.
The next test has as its target EGFR(L858R) (Homo sapiens, UniProt P00533, L858R). Put plainly: biochemical. As to conditions: 1000 nM, read-out: Percent Control.
Test [8] deals with ABL1(F317I)-nonphosphorylated (Homo sapiens, UniProt P00519, F317I). Put plainly: biochemical. To be noted: read-out: Percent Control.
The target in test [9] is T2, FLT3(D835H). Briefly: biochemical. As to conditions: compound concentration 100 nM; Entrez FLT3; read-out: Percent Control.
A further test addresses LIMK2 (Homo sapiens, UniProt P53671). Briefly: Differential scanning fluorimetry assay for LIMK1/2. To be noted: LIMK2, 10 μM compound.

Where two headings read alike, the source gives them in different places.

Sequence of WNK2 (Q9Y3S1 whole entry): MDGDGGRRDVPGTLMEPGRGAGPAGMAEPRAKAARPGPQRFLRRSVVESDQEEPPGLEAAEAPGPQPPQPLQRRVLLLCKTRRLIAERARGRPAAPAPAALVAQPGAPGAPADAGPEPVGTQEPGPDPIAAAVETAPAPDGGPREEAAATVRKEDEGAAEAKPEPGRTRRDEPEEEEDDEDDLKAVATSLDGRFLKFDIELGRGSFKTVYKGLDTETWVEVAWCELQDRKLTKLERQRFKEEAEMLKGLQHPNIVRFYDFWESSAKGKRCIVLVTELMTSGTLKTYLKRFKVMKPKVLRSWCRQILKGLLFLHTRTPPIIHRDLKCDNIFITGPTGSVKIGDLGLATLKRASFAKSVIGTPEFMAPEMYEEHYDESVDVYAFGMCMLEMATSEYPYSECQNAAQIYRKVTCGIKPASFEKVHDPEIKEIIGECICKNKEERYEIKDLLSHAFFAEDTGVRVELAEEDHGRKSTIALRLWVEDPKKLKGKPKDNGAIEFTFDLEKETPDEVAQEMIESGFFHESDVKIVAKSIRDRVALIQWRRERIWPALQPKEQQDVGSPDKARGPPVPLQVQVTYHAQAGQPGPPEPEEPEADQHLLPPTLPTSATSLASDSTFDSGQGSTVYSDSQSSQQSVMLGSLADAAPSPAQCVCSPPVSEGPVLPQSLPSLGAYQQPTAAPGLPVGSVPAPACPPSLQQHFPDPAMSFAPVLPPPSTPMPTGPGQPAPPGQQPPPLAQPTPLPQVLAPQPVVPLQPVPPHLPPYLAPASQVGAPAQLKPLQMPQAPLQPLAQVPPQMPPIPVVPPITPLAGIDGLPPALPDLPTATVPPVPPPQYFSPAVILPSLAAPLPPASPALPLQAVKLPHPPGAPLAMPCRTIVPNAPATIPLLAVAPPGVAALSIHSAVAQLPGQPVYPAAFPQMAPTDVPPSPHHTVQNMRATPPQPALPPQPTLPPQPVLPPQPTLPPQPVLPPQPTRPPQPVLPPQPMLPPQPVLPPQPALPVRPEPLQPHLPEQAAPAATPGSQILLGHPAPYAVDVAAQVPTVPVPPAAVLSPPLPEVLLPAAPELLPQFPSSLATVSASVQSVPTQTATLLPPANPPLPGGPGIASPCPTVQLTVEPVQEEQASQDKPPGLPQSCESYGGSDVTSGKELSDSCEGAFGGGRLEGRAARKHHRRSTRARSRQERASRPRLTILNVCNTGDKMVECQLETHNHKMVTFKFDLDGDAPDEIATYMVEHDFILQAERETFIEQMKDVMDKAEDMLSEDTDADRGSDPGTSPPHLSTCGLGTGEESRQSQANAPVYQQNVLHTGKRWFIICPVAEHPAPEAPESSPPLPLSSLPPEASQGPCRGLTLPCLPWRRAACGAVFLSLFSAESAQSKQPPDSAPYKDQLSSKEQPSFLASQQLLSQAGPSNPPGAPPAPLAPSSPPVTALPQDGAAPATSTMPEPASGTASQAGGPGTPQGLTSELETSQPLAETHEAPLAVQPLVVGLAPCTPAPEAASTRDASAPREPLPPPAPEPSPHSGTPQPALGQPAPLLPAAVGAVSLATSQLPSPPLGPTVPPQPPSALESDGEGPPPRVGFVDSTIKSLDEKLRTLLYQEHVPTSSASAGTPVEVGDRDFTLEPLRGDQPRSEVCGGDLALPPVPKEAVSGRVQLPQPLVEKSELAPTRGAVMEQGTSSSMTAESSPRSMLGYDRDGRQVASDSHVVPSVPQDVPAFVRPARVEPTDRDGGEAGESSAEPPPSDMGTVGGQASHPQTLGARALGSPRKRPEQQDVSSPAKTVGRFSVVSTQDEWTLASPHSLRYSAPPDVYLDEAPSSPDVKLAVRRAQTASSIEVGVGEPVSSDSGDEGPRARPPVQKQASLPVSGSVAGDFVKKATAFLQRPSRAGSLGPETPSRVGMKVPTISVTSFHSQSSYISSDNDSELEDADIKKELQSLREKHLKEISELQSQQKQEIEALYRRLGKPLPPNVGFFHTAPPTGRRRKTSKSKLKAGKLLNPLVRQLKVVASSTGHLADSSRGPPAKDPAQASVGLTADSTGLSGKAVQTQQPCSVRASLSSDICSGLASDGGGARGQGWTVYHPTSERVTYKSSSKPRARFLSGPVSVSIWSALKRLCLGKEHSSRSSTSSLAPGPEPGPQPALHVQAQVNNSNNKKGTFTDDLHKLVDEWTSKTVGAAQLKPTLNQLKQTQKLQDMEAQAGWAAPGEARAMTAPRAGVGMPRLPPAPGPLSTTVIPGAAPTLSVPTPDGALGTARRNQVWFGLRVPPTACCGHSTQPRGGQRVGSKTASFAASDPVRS
Sequence of BTK2 (Q06187 whole entry): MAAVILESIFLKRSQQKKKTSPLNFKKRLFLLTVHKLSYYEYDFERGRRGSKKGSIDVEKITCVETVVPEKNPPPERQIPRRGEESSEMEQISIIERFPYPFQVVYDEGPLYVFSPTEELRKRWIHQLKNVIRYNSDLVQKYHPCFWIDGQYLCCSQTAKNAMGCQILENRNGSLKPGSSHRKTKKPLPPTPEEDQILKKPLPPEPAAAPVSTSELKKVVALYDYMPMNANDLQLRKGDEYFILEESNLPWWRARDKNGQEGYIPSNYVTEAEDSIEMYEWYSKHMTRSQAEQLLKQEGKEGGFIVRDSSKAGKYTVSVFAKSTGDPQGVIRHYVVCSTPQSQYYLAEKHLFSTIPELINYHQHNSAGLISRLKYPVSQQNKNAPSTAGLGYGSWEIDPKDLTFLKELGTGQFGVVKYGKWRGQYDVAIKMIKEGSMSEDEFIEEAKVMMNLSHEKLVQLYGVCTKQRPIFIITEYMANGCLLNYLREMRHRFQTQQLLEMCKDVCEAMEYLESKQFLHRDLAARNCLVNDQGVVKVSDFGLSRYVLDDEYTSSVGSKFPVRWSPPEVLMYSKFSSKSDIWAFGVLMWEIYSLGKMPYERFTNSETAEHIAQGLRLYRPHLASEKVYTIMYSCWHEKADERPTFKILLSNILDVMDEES
Sequence of CHEK2 (O96017 whole entry): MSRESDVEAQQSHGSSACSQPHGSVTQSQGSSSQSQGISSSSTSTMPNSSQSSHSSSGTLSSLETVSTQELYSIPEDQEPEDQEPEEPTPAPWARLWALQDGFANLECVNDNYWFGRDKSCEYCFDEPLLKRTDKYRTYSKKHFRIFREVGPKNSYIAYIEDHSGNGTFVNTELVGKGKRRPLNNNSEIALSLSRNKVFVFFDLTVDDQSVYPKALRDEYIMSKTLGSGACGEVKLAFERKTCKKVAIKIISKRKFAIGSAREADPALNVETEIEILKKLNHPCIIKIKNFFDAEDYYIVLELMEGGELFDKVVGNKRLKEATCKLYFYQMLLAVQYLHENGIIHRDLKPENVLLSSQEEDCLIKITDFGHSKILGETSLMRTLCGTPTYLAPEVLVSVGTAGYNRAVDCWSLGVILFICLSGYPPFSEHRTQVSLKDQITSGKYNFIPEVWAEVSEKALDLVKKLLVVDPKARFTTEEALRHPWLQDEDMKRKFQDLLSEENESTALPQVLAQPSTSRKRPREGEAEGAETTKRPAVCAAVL
T1 sequence (P00533 25-1210 T790M): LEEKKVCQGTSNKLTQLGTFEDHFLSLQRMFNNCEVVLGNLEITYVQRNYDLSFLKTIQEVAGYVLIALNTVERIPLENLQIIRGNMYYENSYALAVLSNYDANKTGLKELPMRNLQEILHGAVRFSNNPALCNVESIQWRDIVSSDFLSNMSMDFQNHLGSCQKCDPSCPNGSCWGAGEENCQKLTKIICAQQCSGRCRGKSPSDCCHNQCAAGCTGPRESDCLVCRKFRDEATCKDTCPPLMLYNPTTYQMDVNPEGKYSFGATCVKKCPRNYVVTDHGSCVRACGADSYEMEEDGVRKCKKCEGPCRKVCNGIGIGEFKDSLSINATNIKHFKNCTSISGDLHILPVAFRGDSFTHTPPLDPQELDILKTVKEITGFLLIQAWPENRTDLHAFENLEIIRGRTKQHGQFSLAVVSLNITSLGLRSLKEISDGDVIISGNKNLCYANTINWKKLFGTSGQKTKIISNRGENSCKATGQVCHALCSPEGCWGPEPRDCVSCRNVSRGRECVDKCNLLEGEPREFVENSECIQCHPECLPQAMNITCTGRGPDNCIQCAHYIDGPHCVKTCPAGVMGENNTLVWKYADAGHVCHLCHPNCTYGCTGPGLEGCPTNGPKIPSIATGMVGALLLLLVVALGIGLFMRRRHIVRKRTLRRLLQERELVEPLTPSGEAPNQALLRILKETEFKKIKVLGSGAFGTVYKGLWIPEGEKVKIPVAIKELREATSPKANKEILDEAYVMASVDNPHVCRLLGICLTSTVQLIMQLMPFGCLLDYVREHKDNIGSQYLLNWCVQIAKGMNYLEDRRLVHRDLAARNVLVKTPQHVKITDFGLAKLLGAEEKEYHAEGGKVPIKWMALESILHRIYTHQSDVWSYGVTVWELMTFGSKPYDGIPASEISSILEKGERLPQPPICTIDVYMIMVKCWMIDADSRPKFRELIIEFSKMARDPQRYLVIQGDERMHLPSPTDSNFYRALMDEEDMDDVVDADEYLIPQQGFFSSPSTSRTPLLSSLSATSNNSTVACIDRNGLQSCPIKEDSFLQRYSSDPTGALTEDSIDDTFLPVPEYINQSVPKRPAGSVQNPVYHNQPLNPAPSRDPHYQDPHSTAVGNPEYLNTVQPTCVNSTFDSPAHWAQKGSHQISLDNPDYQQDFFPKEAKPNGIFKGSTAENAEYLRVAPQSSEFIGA
Sequence of RSK1(Kin.Dom.2-C-terminal) (Q15418 418-675): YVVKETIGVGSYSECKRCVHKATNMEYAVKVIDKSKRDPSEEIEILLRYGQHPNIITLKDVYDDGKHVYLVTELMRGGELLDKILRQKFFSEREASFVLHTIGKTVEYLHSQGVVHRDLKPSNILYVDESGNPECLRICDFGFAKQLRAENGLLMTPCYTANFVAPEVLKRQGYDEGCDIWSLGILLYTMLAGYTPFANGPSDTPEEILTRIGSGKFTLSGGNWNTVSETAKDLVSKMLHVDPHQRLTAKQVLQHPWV
Experimental for LIMK2: The assay was performed according to a previously established protocol. […] The compounds to be tested were added to a final concentration of 10 μM. […] Data were analyzed with MxPro software.

As for `CN1C(=O)[C@@H](N2CCc3c(nn(Cc4ccccc4)c3C(N)=O)C2=O)COc2cc(Cl)ccc21` [Compound 10, (S)-2-benzyl-6-(8-chloro-5-methyl-4-oxo-2,3,4,5-tetrahydrobenzo[b][1,4]oxazepin-3-yl)-7-oxo-4,5,6,7-tetrahydro-2H-pyrazolo[3,4-c]pyridine-3-carboxamide], the remaining activity at 1 µM at FLT3(D835V) amounted to 56%; on EGFR(T790M) [1], 100%; on PIK3CA(Q546K), 97%; on PIK3CA(M1043I) it was 87%; in [3], 100%; on FLT3(D835H) [4] it was 100%. Also, the remaining activity at 1 µM was 93% at MET(Y1235D), 94% in test [7], 100% on EGFR(L858R) and 69% in [8]. The remaining activity at 0.1 µM was 100% on EGFR(L858R,T790M); 100% at EGFR(T790M) [2]; 84% at RET(V804L); 72% in test [6]; 84% on FLT3(D835H) [9]. Moreover, the remaining binding at 1 µM on BTK2 (BTK2, 1 μM, read-out: POC (Top Hits @ 1 μM)) turned out to be 55%; at BTK2 (BTK, 1000 nM, read-out: Percent Control), 55%; at ARK5 (1000 nM) it was 99%; on DMPK (1000 nM), 100%; at TBK1, 94%; on CHEK2 (1000 nM) it was 100%. In addition, the remaining binding at 1 µM at JNK3 was 95%; on ROS1, 88%; at EPHB1, 94%; on WNK2 (WNK2, 1 μM, read-out: POC (Top Hits @ 1 μM)) it was 49%; on WNK2 (WNK2, 1000 nM, read-out: Percent Control), 49%. The remaining binding at 0.1 µM on BTK2 (BTK (Entrez BTK), 100 nM, read-out: Percent Control) was determined as 62%; on ARK5 (compound concentration 100 nM, Entrez NUAK1), 86%; at RIOK2, 94%; at DMPK (compound concentration 100 nM, Entrez DMPK), 80%; at CHEK2 (compound concentration 100 nM, Entrez CHEK2), 100%; on MYLK4, 92%. Besides, the remaining binding at 0.1 µM in [5] came to 97%; at SNRK, 99%; at MAPKAPK5 it was 96%; on WNK2 (WNK2 (Entrez WNK2), 100 nM, read-out: Percent Control), 100%. Also, the “Percent Control” value in the test on FLT3(ITD,F691L) turned out to be 100. For the same molecule, at BRPF1A, the ΔTm at 10 µM is -0.8 °C.

`CN1C(=O)[C@@H](N2CCc3c(C(N)=O)nn(Cc4ccccc4)c3C2=O)COc2ccccc21` [Compound 11]: the “ΔTM (stabilization in the DSF assay)” value on LIMK2 is “inactive”.
